This note sets out measurements from US20260256780A1, “COMPOSITIONS FOR INDUCING RAS GTP HYDROLYSIS AND USES THEREOF” (Revolution Medicines, Inc., priority 2023, published 2026).

Assay [1] relates to GTP-loaded KRAS proteins (residue 1-169 of KRAS4B). As to the kind of experiment: RAS GTP hydrolysis rate assay (GTPase-Glo) with cyclophilin A. Conditions: 10 μM compound, 25 μM cyclophilin A, 37° C. It is filed as biochemical. The protocol: (§1) The rate of RAS GTP hydrolysis was assayed in the presence of various KRAS mutations. To assess GTP hydrolysis activity, recombinant KRAS proteins (residue 1-169 of KRAS4B) were expressed in E. coli and purified using a TEV protease-cleavable His6-tag and Ni^2+ affinity chromatography. The His6 tag was removed by treatment with TEV protease, and the KRAS protein was isolated by passing through a second Ni^2+ column followed by size exclusion chromatography. The purified KRAS proteins were loaded with GTP by incubation for 2 hours on ice with 2 mM GTP and 10 mM Ethylenediaminetetraacetic Acid, followed by addition of 10 mM MgCl2 and incubation on ice for 1 additional hour. The excess GTP was removed by overnight dialysis against buffer (12.5 mM HEPES, 75 mM NaCl, pH 7.5) at 4° C. The GTP-loaded KRAS protein were flash frozen in liquid nitrogen, then stored at −80° C. until use.
(§2) GTP-loaded KRAS proteins (1 μM) were combined with 25 μM of recombinant human cyclophilin A and 10 μM of compound in reaction buffer (12.5 mM HEPES, 75 mM NaCl, 1 mM MgCl2, 1 mM DTT, 1% DMSO, pH 7.5) pre-warmed to 37° C. At fixed time points, aliquots were removed and quenched by heating to 80° C. to denature the proteins, then centrifuged to pellet the protein precipitate. The supernatant was assessed for GTP levels using Promega GTPase-Glo™ according to manufacturer instructions. The levels of GTP as a function of incubation time were fit to a single phase exponential decay to determine the rate constant for hydrolysis activity.

For assay [2], the target named is T1, GTP-loaded KRAS proteins (residue 1-169 of KRAS4B) (Homo sapiens, UniProt P01116, G12V).
T1 construct: recombinant KRAS proteins (residue 1-169 of KRAS4B); His6 (TEV protease-cleavable) (cleaved yes); made in house; host or cells: E. coli
Described as above. It is filed as biochemical. Particulars: bound in tri-complex with cyclophilin A; in some embodiments KRAS^G12V is the isoform used. As to the method:
as §1, §2

Assay [3] concerns KRASG12D-mutant cell line AsPC-1. As to the kind of experiment: Cell viability (CellTiter-Glo) and HSA synergy model, AsPC-1. Format: cell-based. As to the method:
(§3) Cell lines were seeded in complete growth media (RPMI-1640 or DMEM with 10% Fetal Bovine Serum and 1% Penicillin/Streptomycin) and allowed to adhere overnight in a 37° C. and 5% CO2 humidified incubator. The following day compounds were added at the indicate concentrations and incubated for a further 5 days. The number of viable cells in each well were assessed with Promega CellTiter-Glo® reagent according to manufacturer instructions. The cell viability was normalized to DMSO controls. The cell viability as a function of compound concentrations were plotted using GraphPad Prism analyzed using the Combenefit software package (Di Veroli G Y, Fornari C, Wang D, Mollard S, Bramhall J L, Richards F M, Jodrell D I. Combenefit: an interactive platform for the analysis and visualization of drug combinations. Bioinformatics. 2016 Sep. 15; 32(18):2866-8. doi: 10.1093/bioinformatics/btw230) to assess the synergy according to the highest single agent (HSA) synergy model (Borisy A A, Elliott P J, Hurst N W, Lee M S, Lehar J, Price E R, Serbedzija G, Zimmermann G R, Foley M A, Stockwell B R, Keith C T. Systematic discovery of multicomponent therapeutics. Proc Natl Acad Sci USA. 2003 Jun. 24; 100(13):7977-82. doi: 10.1073/pnas.1337088100)).
The KRASG12D-mutant cell line AsPC-1 was grown in RPMI-1640 supplemented with 10% fetal bovine serum and 1% penicillin/streptomycin. 2500 cells were seeded in 0.15 mL in the wells of a tissue culture-treated 96-well plate. After overnight incubation, compounds were added at the indicated concentration and incubated for a further 120 hours. Cell viability was assessed with Promega CellTiter Glo reagent, and the relative cell viability was plotted as a function of the concentration of (FIG. 4A and FIG. 4G) MRTX1133 or (FIG. 4D) MRTX-282 in combination with the indicated concentration to Compound A (FIG. 4A and FIG. 4D) or Compound D (FIG. 4G), both strong hydrolyzers. The synergy between (FIG. 4B and FIG. 4H) MRTX1133 or (FIG. 4E) MRTX-282 and Compound A (FIGS. 4B and 4E) or Compound D (FIG. 4H) was assessed by the HAS synergy model. Representative points of synergistic drug combination between (FIG. 4C and FIG. 4I) MRTX1133 or (FIG. 4F) MRTX-282 and Compound A (FIG. 4C and FIG. 4F) or Compound D (FIG. 4I) are highlighted.
The KRASG12D-mutant cell line AsPC-1 was grown in RPMI-1640 supplemented with 10% fetal bovine serum and 1% penicillin/streptomycin. 2000 cells were seeded in 0.15 mL in the wells of a tissue culture-treated 96-well plate. After overnight incubation, compounds were added at the indicated concentration and incubated for a further 120 hours. Cell viability was assessed with Promega CellTiter Glo reagent, and the relative cell viability was plotted as a function of the concentration of pan KRAS-IN-1 in combination with the indicated concentration to Compound D (FIG. 11A) or Compound C (FIG. 11D), both strong hydrolyzers. The synergy between pan KRAS-IN-1 and Compound D (FIG. 11B) or Compound C (FIG. 11E) was assessed by the HAS synergy model. Representative points of synergistic drug combination between pan KRAS-IN-1 and Compound D (FIG. 11C) or Compound C (FIG. 11F).
On the technique in general: Cellular ATP, detected with luciferase, serves as a proxy for viable cell number.

Assay [4] relates to KRASG12D-mutant cell line HPAC. Put plainly: Cell viability (CellTiter-Glo) and HSA synergy model, HPAC. Format: cell-based. As to the method: as §3
The KRASG12D-mutant cell line HPAC was grown in RPMI-16 40 supplemented with 10% fetal bovine serum and 1% penicillin/streptomycin. […]

For assay [5], the system named is KRASG12D-mutant cell line Gp2D. Put plainly: Cell viability (CellTiter-Glo) and HSA synergy model, Gp2D. It is filed as cell-based. The protocol: as §3
The KRASG12D-mutant cell line Gp2D was grown in RPMI-16 40 supplemented with 10% fetal bovine serum and 1% penicillin/streptomycin. […]

In assay [6] the test system is KRASG12C-mutant cell line MiaPaCa2. As to the kind of experiment: Cell viability (CellTiter-Glo) and HSA synergy model, MiaPaCa2. Format: cell-based. The protocol: as §3
The KRASG12C-mutant cell line MiaPaCa2 was grown in DMEM supplemented with 10% fetal bovine serum and 1% penicillin/streptomycin. […]

The target in another assay is T2, KRAS^G12C (Homo sapiens, UniProt P01116, G12C).
T2 construct: endogenous in cells; host or cells: MiaPaCa2
Put plainly: Covalent modification (cross-linking) of KRAS^G12C by sotorasib in MiaPaCa2 cells, immunoblot. It is filed as cell-based. The protocol: The KRASG12C-mutant cell line MiaPaCa2 was grown in DMEM supplemented with 10% fetal bovine serum and 1% penicillin/streptomycin. 2500 cells were seeded in 0.15 mL in the wells of a tissue culture-treated 96-well plate. After overnight incubation, compounds were added at the indicated concentration and incubated for a further 120 hours. […] The density of the KRAS^G12C and KRAS^G12C-Soto. gel bands can be quantified, plotted as a function of time, and fit to a single-phase exponential model to get the rate constant for KRAS^G12C target engagement.
Background: Immunoblotting shows a protein as a band on a membrane.

Where [7] appears, read: in combination with MRTX1133, 120 hours.
Setting [8] is: in combination with MRTX-282, 120 hours.

Consider `CCn1c(-c2cccnc2[C@H](C)OC)c2c3cc(ccc31)-c1cc(O)cc(c1)C[C@H](NC(=O)[C@H](C(C)C)N(C)C(=O)C1(C#N)CC1)C(=O)N1CCC[C@H](N1)C(=O)OCC(C)(C)C2` (racemic) [Compound F, reference compound], for which the “RAS GTP hydrolysis activation” value in assay [1] is given as “does not activate GTP hydrolysis”.
As for `CCn1c(-c2cc(N3CCN(C)CC3)cnc2[C@H](C)OC)c2c3cc(ccc31)-c1cccc(c1)C[C@H](NC(=O)[C@H]1C[C@@H]1C)C(=O)N1CCC[C@H](N1)C(=O)OCC(C)(C)C2` (atropisomer, axis not shown) [compound 20], the “hydrolyzer class: RAS(ON) GTP hydrolysis rate relative to the intrinsic hydrolysis rate” value in assay [2] was found to be 20 Weak.
`CCn1c(-c2cccnc2[C@H](C)OC)c2c3cc(ccc31)[C@@H]1C[C@H]1CC[C@H](NC(=O)[C@H]1[C@H](C)[C@@H]1C)C(=O)N1CCC[C@H](N1)C(=O)OCC(C)(C)C2` (atropisomer, axis not shown) [compound 1]: the “synergy on cell viability (HSA synergy model)” value is recorded as “synergistic” in assay [3] (AsPC-1, in combination with MRTX1133, 120 hours); “synergistic” in assay [3] (AsPC-1, in combination with MRTX-282, 120 hours); “synergistic” in assay [4] (setting [7]); “synergistic” in assay [4] (setting [8]); “synergistic” in assay [5] (setting [7]); “synergistic” in assay [5] (setting [8]). Moreover, the “synergy on cell viability (HSA synergy model)” value in assay [6] (MiaPaCa2, in combination with AMG510, 120 hours) is given as “synergistic”; in assay [6] (MiaPaCa2, in combination with MRTX849, 120 hours), “synergistic”. Moreover, the “cross-linking efficiency of sotorasib” value on KRAS^G12C (MiaPaCa2 cells, 1 μM sotorasib in combination with 1 μM or 10 μM Compound A vs sotorasib alone) was “increases in a concentration dependent manner”. Further, the “amount of covalently-modified KRAS^G12C (KRAS^G12C-Soto.)” value at KRAS^G12C (MiaPaca-2 cells, sotorasib in combination with 1 or 10 μM of Compound A) is “increased at each time point”. Moreover, the “rate of covalent engagement of KRAS^G12C (rate constant for target engagement)” value on KRAS^G12C (combination of sotorasib and compound A compared with sotorasib alone) is listed as “more rapid”.
Consider `CCO[C@@H]1c2nc(cs2)-c2ccc3c(c2)c(c(-c2cccnc2[C@H](C)OC)n3CC)CC(C)(C)COC(=O)[C@@H]2CCCN(N2)C(=O)[C@H]1NC(=O)[C@@H]1[C@@H](C)[C@H]1C(=O)N(C)C` (atropisomer, axis not shown) [compound 17], for which, in assay [2], the “hydrolyzer class: RAS(ON) GTP hydrolysis rate relative to the intrinsic hydrolysis rate” value was found to be 17 Weak.
Regarding `CCn1c(-c2cc(N3CCN(C)CC3)cnc2[C@H](C)OC)c2c3cc(ccc31)-c1csc(n1)C[C@H](NC(=O)[C@H]1C[C@@H]1C)C(=O)N1CCC[C@H](N1)C(=O)OCC(C)(C)C2` (atropisomer, axis not shown) [compound 12], in assay [2], the “hydrolyzer class: RAS(ON) GTP hydrolysis rate relative to the intrinsic hydrolysis rate” value was 12 Moderate.
